Test results: patent US9890185B2, “Urea derivatives useful as kinase inhibitors” (Respivert Limited, priority 2013, dated 2018)

Assays:
d-U937 cells = assay: Accumulation of β catenin in d-U937 cells (assay m); type: cell-based, human; conditions: percentage relative to Reference Compound at 1 μg/mL
Outline: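 Read-out: colourimetric cell-based immunoassay for endogenous β-catenin (OD450 minus 655 reference), normalised to crystal violet absorbance at 595 nm. Test compound or vehicle was applied for 18 hr to U937 monocytes first differentiated with PMA (100 ng/mL) for 48–72 hr.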

[1] = target: p38 MAPKα isoform (MAPK14) (Homo sapiens (Human), UniProt Q16539); assay: p38 MAPKα enzyme inhibition (FRET, Z-LYTE, Method 2); type: biochemical
Outline: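 Z-LYTE FRET: p38 MAPKα (80 ng/mL for Method 1, 200 ng/mL for Method 2, pre-dilution) preincubated 2 hr RT with compound (4–0.004 μg/mL solutions), activity read via MAPKAP-K2 phosphorylation after 1 hr RT and 1 hr protease development. Coumarin/fluorescein ratio gives phosphorylation; % inhibition versus uninhibited control, IC50 from concentration-response curve.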

GSK 3α = GSK 3α (Homo sapiens (Human), UniProt P49840); assay: GSK 3α enzyme inhibition (FRET, Z-LYTE, Method 2); type: biochemical; conditions: read-out: IC50 Values for Enzyme Inhibition, GSK3α
Outline: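 Human GSK3α (500 ng/mL) preincubated with compound (4, 0.4, 0.04 or 0.004 μg/mL) at RT for 2 h (Method 1) or 105 min (Method 2). Then FRET peptide (8 μM) and ATP (40 μM) added for 1 h, followed by protease development for 1 h. IC50 from the coumarin/fluorescein emission ratio relative to uninhibited control.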

PBMCs [2] = assay: LPS-induced IL-8 release in PBMC cells (assay b); type: cell-based, human; conditions: Homo sapiens, PBMC; LPS-stimulated PBMCs; read-out: IC50 Values for Inhibition of Cytokine Release, PBMCs IL-8
Outline: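 Cytokines (TNFα, IL-8) in supernatants were quantified by sandwich ELISA after a 24 h challenge with 1 ng/mL E. coli LPS at 37° C, 5% CO2. Healthy-donor PBMCs had been exposed to compound for 2 h beforehand. IC50 values were fitted from the concentration-response curves.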

HT29 cells = assay: IL-1β-induced IL-8 release in HT29 cells (assay d); type: cell-based; conditions: Homo sapiens, HT-29; IL-1β-stimulated HT29 cells; read-out: IC50 Values for Inhibition of Cytokine Release, HT29 cells IL-8
Procedure: HT29 cells, a human colon adenocarcinoma cell line, are plated in a 96 well plate (24 hrs) and pre-treated with compounds at the desired concentration for 2 hours before addition of 5 ng/mL of IL-1β (Abcam) for 24 hours. Supernatants are harvested for IL-8 quantification by Sandwich ELISA (Duo-set, R&D System). The IC50 is determined from the dose response curve.

c-Src = c-Src (Homo sapiens (Human), UniProt P12931); assay: c-Src enzyme inhibition (FRET, Z-LYTE); type: biochemical
Outline: (§1)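 First, compound and enzyme incubate 2 hr at room temperature. Next, FRET peptide (8 μM added solution) and ATP go in for 1 hr, using an 800 μM solution for c-Src and 60 μM for Syk. Finally protease develops for 1 hr; IC50 is fitted to inhibition versus concentration.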

Syk = Syk (Homo sapiens (Human), UniProt P43405); assay: Syk enzyme inhibition (FRET, Z-LYTE); type: biochemical
Outline: as §1

PBMCs [3] = assay: Cell mitosis assay in PBMCs (assay g); type: cell-based; conditions: Homo sapiens, PBMC, test compound 5 μg/mL
Outline: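 Metaphase arrest with 0.1 μg/mL demecolcine during the final 2 hr of a 20 hr compound exposure, which follows 48 hr of 2% PHA stimulation of healthy-donor human PBMCs. Mitotic lymphocytes counted by flow cytometry (anti-phospho-histone 3 plus propidium iodide). Inhibition expressed relative to 0.5% DMSO.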

PBMCs [4] = assay: IFN gamma release in CD3/CD28 stimulated PBMC cells (assay c); type: cell-based; conditions: Homo sapiens, read-out: IC50 Values for Inhibition of Cytokine Release, PBMCs IFNγ
Outline: (§2)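 Sandwich ELISA of supernatant IL-2 and IFN gamma; IC50 from dose-response curve. Cells: density-gradient PBMCs from healthy subjects on plate-bound anti-CD3 0.3 μg/mL + anti-CD28 3 μg/mL, compound added, 3 d culture.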

PBMCs [5] = assay: IL-2 release in CD3/CD28 stimulated PBMC cells (assay c); type: cell-based; conditions: Homo sapiens, read-out: IC50 Values for Inhibition of Cytokine Release, PBMCs IL-2
Outline: as §2

Chain of c-Src (P12931 whole entry, looked up): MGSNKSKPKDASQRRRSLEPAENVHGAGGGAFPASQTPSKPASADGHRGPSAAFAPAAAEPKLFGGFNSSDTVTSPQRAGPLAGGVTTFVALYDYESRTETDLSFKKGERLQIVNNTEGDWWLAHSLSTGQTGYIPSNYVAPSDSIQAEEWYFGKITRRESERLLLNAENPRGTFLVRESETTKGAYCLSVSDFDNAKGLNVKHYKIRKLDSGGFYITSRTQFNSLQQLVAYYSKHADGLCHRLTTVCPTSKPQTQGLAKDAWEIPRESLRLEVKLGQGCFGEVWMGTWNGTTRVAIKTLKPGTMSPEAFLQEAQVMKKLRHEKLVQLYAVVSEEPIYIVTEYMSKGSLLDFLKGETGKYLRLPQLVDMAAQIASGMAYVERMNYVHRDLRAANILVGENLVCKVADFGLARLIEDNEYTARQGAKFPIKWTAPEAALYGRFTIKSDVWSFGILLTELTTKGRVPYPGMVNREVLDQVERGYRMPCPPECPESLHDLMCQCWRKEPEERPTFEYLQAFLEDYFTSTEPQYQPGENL
Chain of p38 MAPKα isoform (MAPK14) (Q16539 whole entry, canonical isoform): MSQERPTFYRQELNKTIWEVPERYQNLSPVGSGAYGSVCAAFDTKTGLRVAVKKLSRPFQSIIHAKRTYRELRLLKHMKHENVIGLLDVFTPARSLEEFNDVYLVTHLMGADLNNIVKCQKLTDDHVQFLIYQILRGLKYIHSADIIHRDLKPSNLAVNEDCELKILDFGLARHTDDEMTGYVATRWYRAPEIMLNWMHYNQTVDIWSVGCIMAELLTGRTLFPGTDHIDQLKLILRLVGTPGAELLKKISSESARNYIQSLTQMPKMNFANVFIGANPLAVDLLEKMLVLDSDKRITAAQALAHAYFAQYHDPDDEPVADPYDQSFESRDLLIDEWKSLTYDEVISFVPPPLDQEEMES
Chain of GSK 3α (P49840 whole entry): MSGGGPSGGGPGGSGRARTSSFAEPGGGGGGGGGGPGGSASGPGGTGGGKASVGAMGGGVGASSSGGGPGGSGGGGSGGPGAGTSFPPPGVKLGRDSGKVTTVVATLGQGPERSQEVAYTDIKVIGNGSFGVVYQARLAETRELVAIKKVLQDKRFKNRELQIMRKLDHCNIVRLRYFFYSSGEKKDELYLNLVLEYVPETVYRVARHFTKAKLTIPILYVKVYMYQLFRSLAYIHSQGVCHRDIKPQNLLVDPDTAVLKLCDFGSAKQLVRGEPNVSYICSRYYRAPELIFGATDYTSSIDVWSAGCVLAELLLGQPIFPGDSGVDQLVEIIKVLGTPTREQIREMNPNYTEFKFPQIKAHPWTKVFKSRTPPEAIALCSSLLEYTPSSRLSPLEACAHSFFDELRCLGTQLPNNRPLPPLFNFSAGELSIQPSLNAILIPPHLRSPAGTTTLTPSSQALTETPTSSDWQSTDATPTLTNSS

| Structure (SMILES) | % β-catenin induction (d-U937 cells; test compound 1 μg/mL) | % β-catenin induction (d-U937 cells; test compound 5 μg/mL) | % β-catenin induction (d-U937 cells; test compound 10 μg/mL) | IC50 [1] | IC50 (GSK 3α) | IC50 (PBMCs [2]) | IC50 (HT29 cells) | IC50 (c-Src) | IC50 (Syk) | inhibition at 5 µg/mL (PBMCs [3]) | IC50 (PBMCs [4]) | IC50 (PBMCs [5]) |
| --- | --- | --- | --- | --- | --- | --- | --- | --- | --- | --- | --- | --- |
| COCCOCCOCCOc1cc(Nc2nccc(Oc3ccc(NC(=O)Nc4cc(C(C)(C)C)cc(CC(N)=O)c4OC)c4ccccc34)n2)cc(OC)c1 [15(c), 2-(5-(tert-butyl)-2-methoxy-3-(3-(4-((2-((3-methoxy-5-(2-(2-(2-methoxyethoxy)ethoxy)-ethoxy)phenyl)amino)pyrimidin-4-yl)oxy)naphthalen-1-yl)ureido)phenyl)acetamide] | 5.5% | 36.0% | 33.0% | 52 nM | 844 nM | 1.6 nM | 3.6 nM | 16 nM | 103 nM | – | – | – |
| COc1c(NC(=O)Nc2ccc(Oc3ccnc(Nc4ccccc4)c3)c3ccccc23)cc(C(C)(C)C)cc1C(=O)NCCN1CCC1 [38(a), N-(2-(Azetidin-1-yl)ethyl)-5-(tert-butyl)-2-methoxy-3-(3-(4-((2-(phenylamino)pyridin-4-yl)oxy)naphthalen-1-yl)ureido)benzamide] | 5.0% | 10.7% | 19.0% | 119 nM | 3320 nM | 3.8 nM | 25.7 nM | 74 nM | 54 nM | 86.2% | – | – |
| COc1cc(CO)cc(Nc2cc(Oc3ccc(NC(=O)Nc4cc(C(C)(C)C)cc(P(C)(C)=O)c4OC)c4ccccc34)ccn2)c1 [38(c), 1-(5-(tert-Butyl)-3-(dimethylphosphoryl)-2-methoxyphenyl)-3-(4-((2-((3-(hydroxymethyl)-5-methoxyphenyl)amino)pyridin-4-yl)oxy)naphthalen-1-yl)urea] | 3.5% | 16.0% | 28.5% | 27 nM | 2220 nM | 1.7 nM | 7.3 nM | 12 nM | 31 nM | 90.2% | – | – |
| COc1c(NC(=O)Nc2ccc(Oc3ccnc(NCc4ccccn4)c3)c3ccccc23)cc(C(C)(C)C)cc1P(C)(C)=O [38(e), 1-(5-(tert-Butyl)-3-(dimethylphosphoryl)-2-methoxyphenyl)-3-(4-((2-((pyridin-2-ylmethyl)amino)pyridin-4-yl)oxy)naphthalen-1-yl)urea] | 2.0% | 30.5% | 32.5% | 5 nM | 1980 nM | 2.9 nM | 15.9 nM | 522 nM | > 1600 nM | 41.6% | – | – |
| COc1c(CC(N)=O)cc(C(C)(C)C)cc1NC(=O)Nc1ccc(Oc2ccnc(Nc3cccc(OS(C)(=O)=O)c3)c2)c2ccccc12 [38(r), 3-((4-((4-(3-(3-(2-Amino-2-oxoethyl)-5-(tert-butyl)-2-methoxyphenyl)ureido)naphthalen-1-yl)oxy)pyridin-2-yl)amino)phenyl methanesulfonate] | – | – | – | 151 nM | 2210 nM | 1.9 nM | 25.9 nM | 94 nM | > 1460 nM | 56.1% | 9.8 nM | 153 nM |
| COc1cc(Nc2cc(Oc3ccc(NC(=O)Nc4cc(C(C)(C)C)cc(C[S+](C)[O-])c4OC)c4ccccc34)ccn2)cc(C(=O)NCCN2CCOCC2)c1 (centres unmarked) [38(u), 3-((4-((4-(3-(5-(tert-Butyl)-2-methoxy-3-((methylsulfinyl)methyl)phenyl)ureido)naphthalen-1-yl)oxy)pyridin-2-yl)amino)-5-methoxy-N-(2-morpholinoethyl)benzamide] | – | – | – | 15 nM | 1070 nM | 1 nM | 2.6 nM | 13 nM | – | 72.2% | 2.9 nM | 171 nM |
| COCCOCCOCCOc1cc(Nc2nccc(Oc3ccc(NC(=O)Nc4cc(C(C)(C)C)cc(OS(C)(=O)=O)c4OC)c4ccccc34)n2)cc(OC)c1 [Example 5, 5-(tert-Butyl)-2-methoxy-3-(3-(4-((2-((3-methoxy-5-(2-(2-(2-methoxyethoxy)ethoxy)-ethoxy)phenyl)amino)pyrimidin-4-yl)oxy)naphthalen-1-yl)ureido)phenyl methanesulfonate] | – | – | – | – | > 9380 nM | 8.7 nM | 7.3 nM | – | – | – | – | – |
| COc1c(NC(=O)Nc2ccc(Oc3ccnc(NCc4ccccn4)c3)c3ccccc23)cc(C(C)(C)C)cc1[S+](C)[O-] (centres unmarked) [Example 42, 1-(5-(tert-Butyl)-2-methoxy-3-(methylsulfinyl)phenyl)-3-(4-((2-((pyridin-2-ylmethyl)amino)pyridin-4-yl)oxy)naphthalen-1-yl)urea] | −5.0% | 12.0% | 20.5% | 8 nM | 3410 nM | 4.3 nM | 2 nM | > 1640 nM | > 1640 nM | 29.9% | – | – |
| COc1cc(Nc2cc(Oc3ccc(NC(=O)Nc4cc(C(C)(C)C)cc(CC(N)=O)c4OC)c4ccccc34)ccn2)cc(C(=O)NCCN2CCOCC2)c1 [Example 45, 3-((4-((4-(3-(3-(2-Amino-2-oxoethyl)-5-(tert-butyl)-2-methoxyphenyl)ureido)naphthalen-1-yl)oxy)pyridin-2-yl)amino)-5-methoxy-N-(2-morpholinoethyl)benzamide] | – | – | – | 21 nM | 1600 nM | 1.2 nM | 8 nM | 12 nM | > 706 nM | 49.6% | 5.2 nM | 36.4 nM |
| COc1cc(Nc2cc(Oc3ccc(NC(=O)Nc4cc(C(C)(C)C)cc([S+](C)[O-])c4OC)c4ccccc34)ccn2)cc(C(=O)NCCN2CCOCC2)c1 (centres unmarked) [Example 46, 3-((4-((4-(3-(5-(tert-Butyl)-2-methoxy-3-(methylsulfinyl)phenyl)ureido)naphthalen-1-yl)oxy)pyridin-2-yl)amino)-5-methoxy-N-(2-morpholinoethyl)benzamide] | – | – | – | 25 nM | 2060 nM | 0.8 nM | 2.8 nM | 25 nM | 996 nM | 45.8% | 2.8 nM | 47.3 nM |
| COc1cc(Nc2cc(Oc3ccc(NC(=O)Nc4cc(C(C)(C)C)cc(P(C)(C)=O)c4OC)c4ccccc34)ccn2)cc(S(=O)(=O)N(C)CCN2CCOCC2)c1 [Example 75, 3-((4-((4-(3-(5-(tert-Butyl)-3-(dimethylphosphoryl)-2-methoxyphenyl)ureido)naphthalen-1-yl)oxy)pyridin-2-yl)amino)-5-methoxy-N-methyl-N-(2-morpholinoethyl)benzenesulfonamide] | – | – | – | 134 nM | 2320 nM | 1.6 nM | – | 78 nM | > 1100 nM | 13.9% | 3 nM | 115 nM |
